Molecular target: T1, CCR10 (Homo sapiens, UniProt P46092)
T1 construct: purchased Promega (in-house HiBiT-GPCR construct library, NanoBRET)
T1 sequence (P46092 1-362): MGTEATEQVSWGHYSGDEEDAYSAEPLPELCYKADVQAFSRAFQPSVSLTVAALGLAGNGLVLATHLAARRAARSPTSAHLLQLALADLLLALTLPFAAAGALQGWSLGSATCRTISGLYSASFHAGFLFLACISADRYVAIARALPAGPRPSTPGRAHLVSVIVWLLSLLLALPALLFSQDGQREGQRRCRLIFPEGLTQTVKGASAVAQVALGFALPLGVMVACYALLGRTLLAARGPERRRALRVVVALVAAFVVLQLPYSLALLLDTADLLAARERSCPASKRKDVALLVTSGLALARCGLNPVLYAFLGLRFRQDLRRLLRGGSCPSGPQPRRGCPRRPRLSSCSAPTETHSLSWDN
Test: NanoBRET screen HiBiT-CCR10 in HEK293
Type: binding
Method: Each tracer candidate was screened across the entire library of HiBiT-GPCR constructs using NanoBRET as the detection modality. As depicted in Figure 4A, the specificity of interactions was evaluated through decrease in BRET due to competitive displacement of a bound tracer by excess parental compound. Each tracer was analyzed for binding to each HiBiT-GPCR fusion in the absence and in the presence of competing parental compound. Briefly, HEK293 cells were transfected with HiBiT-GPCR constructs diluted into promoterless DNA to reduce expression and maximize translocation to the cell surface. Each tracer candidate was then screened at concentrations of 1 μM and 0.1 μM across cells expressing these fusions. Cells were treated for 1.5 h with tracer either alone or in the presence of 20 μM competing parental compound (i.e., control). BRET was measured upon addition of purified LgBiT and subsequent complementation with HiBiT genetically fused to a GPCR. The specificity of interactions was assessed through a decrease in BRET signal due to competitive displacement of the bound tracer. To further gauge the robustness of these interactions, the fold response over the control (i.e., BRETtracer/BRETcontrol) was calculated. We chose a 1.5-fold response, which translates to ≥7-fold signal over noise as the minimal threshold required to score an interaction as positive.
HiBiT-GPCR DNA constructs were diluted in 10 mM Tris pH 8 to a final concentration of 0.01 μg/μL, arrayed in 96-well plates and stored at −20 °C. For transfection, HEK293 cells were suspended in Opti-MEM (without phenol red) supplemented with 2% fetal bovine serum (Seradigm) and 100 units/mL penicillin–streptomycin (Gibco) at a final concentration of 220,000 cells/mL and dispensed into white 96-well plates at 90 μL/well. Subsequent transfections and screens were carried using an Agilent Bravo Automated Liquid Handling Platform. First, the 96-well HiBiT DNA arrays were diluted 25-fold in Opti-MEM (without serum or phenol red) to a final concentration of 0.0004 μg/μL and 20 μL of the diluted DNAs were transferred into new 96-well plates. Next, promoterless carrier DNA (1 μg/μL) was diluted 25-fold (0.04 μg/μL) and then dispensed into the diluted arrays at 20 μL/well. Following brief mixing, Viafect transfection reagent (Promega) diluted 16-fold into Opti-MEM was dispensed into the plates at 40 μL/well. After mixing by pipetting, plates were incubated for 10 min on the pipetting station deck. The DNA-transfection reagent complexes were then added to plates containing cells. To facilitate the screen, 10 μL of DNA-transfection reagent complexes were added in duplicates to the top 4 and bottom 4 rows, resulting in two identical 48-well arrays per plate. Plates with transfected cells were incubated for 18–20 h at 37 °C/5% CO2. A screen of each tracer across the entire library using two different concentrations requires duplicate plates of transfected cells. Depending on the number of tracers being screened, transfections can be scaled up using the same ratios. The next day, for each tracer, four 20× screening solutions in tracer dilution buffer (Promega) were prepared: two duplicates at final concentration of 20 μM and two duplicates at a final concentration of 2 μM. […] The four resulting solutions were diluted 4-fold in Opti-MEM without serum or phenol red to generate 5× solutions (5 µM and 0.5 µM tracer +/− 100 μM competing compound). To screen the library, a BioTek MultiFlo FX liquid dispenser was used to dispense 22.5 µL of tracer solution to the top 4 rows and 22.5 µL tracer + competing compound solution to the 4 bottom rows. Plates were briefly mixed on an orbital shaker and incubated for 1.5 h at room temperature. […] Plates were briefly mixed on an orbital shaker and incubated for 15 min to allow complementation.

Compound	NanoBRET Fold Response (CCR10, tracer 0.1μM)	NanoBRET Fold Response (CCR10, tracer 1μM)	other results
O=C(CCc1ccc2n1[B-](F)(F)[N+]1=C(c3ccc[nH]3)C=CC1=C2)NCc1ccc(C(=O)NCCOCCC(=O)N[C@@H]2CC[C@@]3(O)[C@H]4Cc5ccc(O)c6c5[C@@]3(CCN4CC3CC3)[C@H]2O6)cc1 [Naltrexone-3-NB590]	1.02	0.92	
CN1CCN(C2=Nc3cc(Cl)ccc3N(CC(=O)NCCOCCOCCOCCOCCNC(=O)CCc3ccc4n3[B-](F)(F)[N+]3=C(c5ccc[nH]5)C=CC3=C4)c3ccccc32)CC1 [Clozapine-c-2-NB590]			NanoBRET Fold Response (CCR10, 0.1μM tracer): 1.00; NanoBRET Fold Response (CCR10, 1μM tracer): 0.91
O=C(CCOCCOCCOCCOCCNC(=O)CCc1ccc2n1[B-](F)(F)[N+]1=C(c3ccc[nH]3)C=CC1=C2)NCCCN1CCN(C2=Nc3cc(Cl)ccc3Nc3ccccc32)CC1 [Clozapine-a-2-NB590]			NanoBRET Fold Response (CCR10, 0.1μM tracer): 1.04; NanoBRET Fold Response (CCR10, 1μM tracer): 1.01
CCOC(=O)c1cc(C#N)c(N2CCC(C(=O)NS(=O)(=O)Cc3ccccc3/C=C/C(=O)NCCNC(=O)CCc3ccc4n3[B-](F)(F)[N+]3=C(c5ccc[nH]5)C=CC3=C4)CC2)nc1C [AZD1283-1-NB590]			NanoBRET Fold Response (CCR10, 0.1μM): 1.00; NanoBRET Fold Response (CCR10, 1μM): 1.07
COc1ccc2[nH]c(-c3ccc(CNC(=O)CCOCCOCCOCCOCCNC(=O)CCc4ccc5n4[B-](F)(F)[N+]4=C(c6ccc[nH]6)C=CC4=C5)cc3)c(CCNC(C)=O)c2n1 [AzomelatoninICO9-2-NB590]			NanoBRET Fold Response (0.1μM tracer): 0.87; NanoBRET Fold Response (1μM tracer): 1.18
CCCn1c(=O)c2[nH]c(-c3ccc(OCC(=O)NCCNC(=O)CCOCCNC(=O)c4ccc(CNC(=O)CCc5ccc6n5[B-](F)(F)[N+]5=C(c7ccc[nH]7)C=CC5=C6)cc4)cc3)nc2n(CCC)c1=O [XAC-3-NB590]	0.92	0.78	
COc1ccccc1N1CCN(CCCCN2C(=O)c3ccc(CNC(=O)CCOCCNC(=O)c4ccc(CNC(=O)CCc5ccc6n5[B-](F)(F)[N+]5=C(c7ccc[nH]7)C=CC5=C6)cc4)cc3C2=O)CC1 [NAN-190-3-NB590]	1.04	1.27	
CN(CCC=C1c2ccccc2CCc2ccccc21)C(=O)CCOCCOCCOCCOCCNC(=O)CCc1ccc2n1[B-](F)(F)[N+]1=C(c3ccc[nH]3)C=CC1=C2 [Amitriptyline-e-2-NB590]			NanoBRET Fold Response (tracer at 1μM): 1.04
O=C(CCc1ccc2n1[B-](F)(F)[N+]1=C(c3ccc[nH]3)C=CC1=C2)NCc1ccc(C(=O)NCCOCCOCCNCC(O)COc2cccc3ccccc23)cc1 (stereo not shown) [Propranolol-3-NB590]			NanoBRET Fold Response (CCR10, 0.1μM): 1.04; NanoBRET Fold Response (CCR10, 1μM): 1.00
COc1ccc2c(n1)c(CCNC(C)=O)cn2CCNC(=O)CCc1ccc2n1[B-](F)(F)[N+]1=C(c3ccc[nH]3)C=CC1=C2 [Azamelatonin-1-NB590]			NanoBRET Fold Response (0.1μM tracer): 0.84; NanoBRET Fold Response (1μM tracer): 0.85
O=C(CCOCCOCCOCCOCCNC(=O)CCc1ccc2n1[B-](F)(F)[N+]1=C(c3ccc[nH]3)C=CC1=C2)NCCCN1CCN(C2=Nc3ccccc3Oc3ccc(Cl)cc32)CC1 [Loxapine-a-2-NB590]	1.04	1.04	
COc1ccccc1N1CCN(CCCCN2C(=O)c3ccc(CNC(=O)CCOCCOCCOCCOCCNC(=O)CCc4ccc5n4[B-](F)(F)[N+]4=C(c6ccc[nH]6)C=CC4=C5)cc3C2=O)CC1 [NAN-190-2-NB590]	0.97	1.00	
CC(C)N(CC[C@H](c1ccccc1)c1cc(CCNC(=O)c2ccc(CNC(=O)CCc3ccc4n3[B-](F)(F)[N+]3=C(c5ccc[nH]5)C=CC3=C4)cc2)ccc1O)C(C)C [Tolterodine-BZ-NB590]	1.00	1.08	
O=C(CCc1ccc2n1[B-](F)(F)[N+]1=C(c3ccc[nH]3)C=CC1=C2)NCCOCCOCCNC(=O)OCCOCCN1CCN(C2=Nc3ccccc3Sc3ccccc32)CC1 [Quetiapine-a-2-NB590]	1.01	0.94	
CN1CCN(C2=Nc3cc(Cl)ccc3Nc3ccc(CNC(=O)CCOCCOCCOCCOCCNC(=O)CCc4ccc5n4[B-](F)(F)[N+]4=C(c6ccc[nH]6)C=CC4=C5)cc32)CC1 [Clozapine-b-2-NB590]			NanoBRET Fold Response (CCR10, 0.1μM tracer): 1.01; NanoBRET Fold Response (CCR10, 1μM tracer): 1.15
CC(C)N(CC[C@H](c1ccccc1)c1cc(CCNC(=O)CCOCCOCCOCCOCCNC(=O)CCc2ccc3n2[B-](F)(F)[N+]2=C(c4ccc[nH]4)C=CC2=C3)ccc1O)C(C)C [Tolterodine-2-NB590]	1.17	0.97	
CN(C)CCC=C1c2ccccc2CCc2ccc(C(=O)NCCNC(=O)CCOCCOCCOCCOCCNC(=O)CCc3ccc4n3[B-](F)(F)[N+]3=C(c5ccc[nH]5)C=CC3=C4)cc21 [Amitriptyline-a-2-NB590]			NanoBRET Fold Response (tracer at 0.1μM): 1.02; NanoBRET Fold Response (tracer at 1μM): 1.00
Cc1cc2c(s1)Nc1ccccc1N=C2N1CCN(CCCNC(=O)CCOCCOCCOCCOCCNC(=O)CCc2ccc3n2[B-](F)(F)[N+]2=C(c4ccc[nH]4)C=CC2=C3)CC1 [Olanzapine-a-2-NB590]	1.01	0.95	
N#CN=C(NCCCOc1cccc(CN2CCCCC2)c1)NCCNC(=O)CCOCCOCCOCCOCCNC(=O)CCc1ccc2n1[B-](F)(F)[N+]1=C(c3ccc[nH]3)C=CC1=C2 [Aminopotentidine-2-NB590]	1.00	1.01	
Cc1nc2n(c(=O)c1CCN1CCC(c3noc4cc(F)ccc34)CC1)CCCC2OC(=O)NCCOCCOCCOCCOCCNC(=O)CCc1ccc2n1[B-](F)(F)[N+]1=C(c3ccc[nH]3)C=CC1=C2 (stereo not shown) [Risperidone-2-NB590]		0.95	
CN(C)CCC=C1c2ccccc2CCc2ccc(C(=O)NCCNC(=O)CCOCCOCCOCCOCCNC(=O)CCc3ccc4n3[B-](F)(F)[N+]3=C(c5ccc[nH]5)C=CC3=C4)cc21 [Amitriptyline-b-2-NB590]			NanoBRET Fold Response (tracer at 0.1μM, listed as amitriptyline-b-2-NB590): 1.05; NanoBRET Fold Response (tracer at 1μM, listed as amitriptyline-b-2-NB590): 1.19

From publication PMC8151276, “An Integrated Approach toward NanoBRET Tracers for Analysis of GPCR Ligand Engagement” (Molecules, 2021)
